Where two headings read alike, the source gives them in different places.
What was measured:
[1] = 200° C.; one hour drying
Excerpt: Caffeine was also quantitated by HPLC to determine the thermal stability of the molecule.

[2] = test system: banana tree snails (African snails); test: Mortality of banana plantation snails on treated plates in a shade house; type: in vivo; settings: T7, 2 g/plate
Experimental: The experiments were conducted in a shade house. Plastic plates and baskets for cover were used to keep the snails in contact with the products. Live snails were obtained by collection/pick up in a banana plantation. Approximately 250 snails were captured early in the morning, the time of day when they are still found in large numbers on the leaves and trunks of banana plants.
BROMOREX® 9.37 is a liquid formulation comprising capsicum extract and mustard essential oil. metaldehyde is a chemical molluscicide.
Four plates per treatment were randomly arranged on a shelf in the shade house. At the bottom of each plate small portions of banana leaves, papaya, and two slices of ripe bananas were placed. 20 mL of each sample was poured into each plate. Eight live snails of the same morphology and size were placed on each plate. Each treatment was repeated 4 times. The plates were covered with baskets that promoted good ventilation and prevented the snails from escaping. The treatments were carried out in late afternoon.
The behavior of snails in contact with the products as well as the mortality of the snails were recorded and interpreted. The data on the mortality of snails to 5 days after application of the products were statistically analyzed using the R software version 3.0.1. The separation of averages for significant effects was made using the Newman-Keuls test at 5% significant level.

With `Cn1c(=O)c2c(ncn2C)n(C)c1=O` [caffeine, 3,7-dihydro-1,3,7-trimethyl-1H-purine-2,6-dione] as the compound, how does the “thermal stability (in words)” value read?
The value was “stable”.

And the “thermal stability (in words)” value [1]?
Its value is “Pyrolysis and caffeine sublimation were observed”.

Which results are given for `CC1OC(C)OC(C)OC(C)O1` (stereo not shown) [metaldehyde]?
mortality rate ([2]; 3 hours after treatment): 6.25%; mortality rate ([2]; after 5 days): 34%

— patent publication US20170086467A1, “MOLLUSCICIDE COMPOSITIONS AND METHODS OF USE THEREOF” (ECOFLORA AGRO SAS, priority 2014, published 2017)
